Molecules are shown by their SMILES.

The nature of data set [1]: Metabolic stability in human plasma assessed as parent compound remaining at 200 uM measured after 15 min by LC-MS/MS analysis relative to control. Type of data set: ADME, cell-free. As to conditions: read-out: Stability.
Data set [2] can be described thus: Metabolic stability in human plasma assessed as parent compound remaining at 200 uM measured after 60 min by LC-MS/MS analysis relative to control. Type of data set: ADME, cell-free. As to conditions: read-out: Stability.
Data set [3] is described as follows: Metabolic stability in human plasma assessed as parent compound remaining at 200 uM measured after 90 min by LC-MS/MS analysis relative to control. Type of data set: ADME, cell-free. As to conditions: read-out: Stability.
Data set [4] is described as follows: Metabolic stability in human plasma assessed as parent compound remaining at 200 uM measured after 120 min by LC-MS/MS analysis relative to control. Type of data set: ADME, cell-free. As to conditions: read-out: Stability.
The nature of data set [5]: Metabolic stability in human plasma assessed as half life at 200 uM by LC-MS/MS analysis relative to control. Type of data set: ADME, cell-free.
For data set [6], the system named is PC-12. Description: Neuroprotective activity against SNP induced rat PC-12 cells assessed as increase in cell viability at 10 uM preincubated for 2 hrs followed by SNP stimulation for 24 hrs by MTT assay relative to control. Type of data set: functional. In general terms: Tetrazolium assays rely on reduction of a dye to a coloured formazan, in cell work by metabolically active cells.

Data set [7] has as its system PC-12. Put plainly: Neuroprotective activity against SNP induced rat PC-12 cells assessed as increase in cell viability at 5 uM preincubated for 2 hrs followed by SNP stimulation for 24 hrs by MTT assay relative to control. Type of data set: functional.
In data set [8] the test system is PC-12. Put plainly: Neuroprotective activity against SNP induced rat PC-12 cells assessed as increase in cell viability at 1 uM preincubated for 2 hrs followed by SNP stimulation for 24 hrs by MTT assay relative to control. Type of data set: functional.
A short description of data set [9]: Plasma protein binding in human plasma at 10 uM incubated for 6 hrs by LC-MS/MS based equilibrium dialysis method. Type of data set: ADME, cell-free. As to conditions: read-out: PPB (converted).
Data set [10] in a line: Plasma protein binding in Sprague-Dawley rat plasma at 10 uM incubated for 6 hrs by LC-MS/MS based equilibrium dialysis method. Type of data set: ADME, cell-free. As to conditions: read-out: PPB (converted).
Data set [11] concerns Rattus norvegicus. Description: Neuroprotective activity in Sprague-Dawley rat model of middle cerebral artery occlusion-induced ischemia-reperfusion injury assessed as decrease in cerebral infarct volume at 5 mg/kg, ip preincubated for 1 hrs followed by MCAO operation and further incubated with compound for 4 hrs after reperfusion by TTC staining based assay. Type of data set: functional. On the set-up: scale not given: the % may be the effect or the level left. As to conditions: time 5 hrs.

Data set [12] in a line: Cytotoxicity against human HaCaT cells assessed as reduction in cell viability by MTT assay. Type of data set: toxicity, cell-based.
The nature of data set [13]: Cytotoxicity against rat PC-12 cells assessed as reduction in cell viability by MTT assay. Type of data set: toxicity, cell-based.

For the compound `CC(C)[N+](C)(CCOC(=O)C1c2ccccc2Oc2ccccc21)C(C)C` [PROPANTHELINE], the remaining at 0.25 h, 200 µM in [1] was 63.4%. In addition, the remaining at 1 h, 200 µM in data set [2] is 34.5%. Also, in data set [3], the remaining at 1.5 h, 200 µM turned out to be 17.3%. Also, the remaining at 2 h, 200 µM in data set [4] stood at 2.41%. The half-life at 200 µM in data set [5] was found to be 23.5 min.
As for `COc1ccccc1-n1nc(-c2ccc(C(F)(F)F)cc2O)nc1-c1ccccc1O`, the Activity in data set [6] is reported as 96.2%; in data set [7], 85.59%; in data set [8], 70.74%.
The corresponding values for `Oc1cc(C(F)(F)F)ccc1-c1nc(-c2ccccc2O)n(-c2ccccc2F)n1` are 100.18%, 86.63% and 63.42%.
With `CC(=O)N1CCN(c2ccc(OCC3COC(Cn4ccnc4)(c4ccc(Cl)cc4Cl)O3)cc2)CC1` (configuration not stated) [KETOCONAZOLE], the fraction unbound at 6 h, 10 µM is 0.0128 in data set [9] and 0.0032 in [10].
For the compound `CC1=NN(c2ccccc2)C(=O)C1` [EDARAVONE], the Activity in data set [6] came to 80.25%; in data set [7] it was 70.3%; in data set [8] it was 58.41%; in data set [11], 12.77%.
As for `Oc1cc(C(F)(F)F)ccc1-c1nc(-c2ccccc2O)n(-c2ccc(F)cc2F)n1`, the Activity in data set [6] is listed as 97.86%; in [7], 83.53%; in data set [8], 65.92%.
Regarding `Oc1cc(C(F)(F)F)ccc1-c1nc(-c2ccccc2O)n(-c2ccc(Br)cc2)n1`, the half-maximal inhibitory concentration (IC50) was 29.6 µM in data set [12] and 66.8 µM in data set [13]. Further, the Activity was found to be 100.49% in data set [6], 89.76% in data set [7] and 69.35% in data set [8].
On to `Oc1cc(C(F)(F)F)ccc1-c1nc(-c2ccccc2O)n(-c2ccccc2C(F)(F)F)n1`, for which the values for the Activity in [6], in data set [7] and in [8] were 92.2%, 80.01% and 70.97%, respectively.
`Cc1ccc(-n2nc(-c3ccc(C(F)(F)F)cc3O)nc2-c2ccccc2O)cc1`: the IC50 in data set [12] turned out to be 81.8 µM; in data set [13], 113 µM. The results for the Activity in [6], in [7] and in data set [8] were 102.45%, 94.12% and 71.49%, respectively.
On to `Oc1cc(C(F)(F)F)ccc1-c1nc(-c2ccccc2O)n(-c2cc(F)cc(F)c2)n1`, for which the IC50 was 45.4 µM in data set [12] and 53.7 µM in data set [13]. For the same compound, the Activity in data set [6] is 106.29%; in [7], 100.23%; in [8], 75.47%.
Turning to `Oc1cc(C(F)(F)F)ccc1-c1nc(-c2ccccc2O)n(-c2ccc(Cl)cc2)n1`, the Activity was 96.09% in [6], 87.25% in data set [7] and 67.99% in [8].
Consider `Oc1cc(C(F)(F)F)ccc1-c1nc(-c2ccccc2O)n(-c2ccc(I)cc2)n1`, for which the figures for the concentration for half-maximal inhibition (IC50) in data set [12] and in data set [13] were 32.1 µM and 73.3 µM, respectively. The Activity is listed as 104.51% in data set [6], 94.41% in data set [7] and 70.13% in [8].
Turning to `Oc1cc(C(F)(F)F)ccc1-c1nc(-c2ccccc2O)n(-c2cccc(F)c2)n1`, the Activity in data set [6] was 98.25%; in data set [7], 87.66%; in data set [8] it was 67.24%.
On to `COc1ccc(-n2nc(-c3ccc(C(F)(F)F)cc3O)nc2-c2ccccc2O)cc1`, for which the Activity is reported as 98.85% in [6], 86.56% in data set [7] and 69.04% in data set [8].
For the compound `Cc1ccc(-n2nc(-c3ccc(C(F)(F)F)cc3O)nc2-c2ccccc2O)c(C)c1`, the figures for the half-maximal inhibitory concentration (IC50) in [12] and in data set [13] were 94.8 µM and 230 µM, respectively. Besides, the values for the Activity in [6], in data set [7] and in data set [8] were 106.25%, 93.31% and 73.72%, respectively.
Take `CCc1ccc(-n2nc(-c3ccc(C(F)(F)F)cc3O)nc2-c2ccccc2O)cc1`: the IC50 in data set [12] came out at 57 µM; in data set [13], 147 µM. Besides, the Activity was found to be 106.61% in [6], 95.36% in data set [7] and 64.43% in data set [8].
On the same counts, the results for `CC(C)c1ccc(-n2nc(-c3ccc(C(F)(F)F)cc3O)nc2-c2ccccc2O)cc1` are 51.4 µM, 144 µM, 108%, 100.41% and 69.66%.
Turning to `Oc1cc(C(F)(F)F)ccc1-c1nc(-c2ccccc2O)n(-c2ccccc2Cl)n1`, the Activity in [6] is 102.19%; in data set [7] it was 90.63%; in [8] it was 70.08%.
As for `Oc1cc(C(F)(F)F)ccc1-c1nc(-c2ccccc2O)n(-c2cccc(C(F)(F)F)c2)n1`, the figures for the IC50 in data set [12] and in data set [13] were 54.3 µM and 49.7 µM, respectively. Besides, the Activity is on record as 99.9% in data set [6], 92.2% in data set [7] and 71.47% in data set [8].
As for `Oc1cc(C(F)(F)F)ccc1-c1nc(-c2ccccc2O)n(-c2cccc(Cl)c2)n1`, the Activity in data set [6] is on record as 100.29%; in [7], 92.73%; in [8], 72.33%.
The corresponding values for `CC(C)(C)c1ccc(-n2nc(-c3ccc(C(F)(F)F)cc3O)nc2-c2ccccc2O)cc1` are 81.14%, 77.77% and 67.29%.
As for `Oc1ccccc1-c1nc(-c2ccc(C(F)(F)F)cc2)no1`, the Activity in data set [6] was found to be 84.7%; in data set [7], 81.39%; in data set [8], 75.88%.
With `COc1cccc(-n2nc(-c3ccc(C(F)(F)F)cc3O)nc2-c2ccccc2O)c1`, the IC50 in data set [12] came out at 81.1 µM; in data set [13], 56.4 µM. Besides, the Activity came out at 105.81% in data set [6], 96.76% in [7] and 68.27% in [8].
For the compound `Oc1cc(C(F)(F)F)ccc1-c1nc(-c2ccccc2O)n(-c2ccc(Cl)cc2Cl)n1`, the Activity in [6] was determined as 95.21%; in data set [7], 86.73%; in data set [8], 68.99%.
Turning to `N#Cc1ccc(-n2nc(-c3ccc(C(F)(F)F)cc3O)nc2-c2ccccc2O)cc1`, the Activity in data set [6] was 98.91%; in data set [7], 86.8%; in data set [8], 66.6%.
Turning to `Oc1cc(C(F)(F)F)ccc1-c1nc(-c2ccccc2O)n(-c2ccc(F)cc2)n1`, the figures for the Activity in data set [6], in data set [7] and in data set [8] were 99.83%, 86.71% and 67.16%, respectively.
With `Oc1cc(C(F)(F)F)ccc1-c1nc(-c2ccccc2O)n(-c2cc(C(F)(F)F)cc(C(F)(F)F)c2)n1`, the Activity in data set [6] is 86.16%; in data set [7], 75.68%; in [8], 68.89%.
For `Oc1cc(C(F)(F)F)ccc1-c1nc(-c2ccccc2O)n(-c2ccc(C(F)(F)F)cc2)n1`, the Activity in [6] was 101.67%; in [7], 90.51%; in data set [8] it was 70.66%.
For the compound `Oc1cc(C(F)(F)F)ccc1-c1nc(-c2ccccc2O)n(-c2ccc(OC(F)(F)F)cc2)n1`, the Activity in data set [6] was determined as 92.54%; in [7], 84.94%; in data set [8], 65.49%.

The half-life is how long it takes for the measured level to halve. By IC50 is commonly meant the midpoint of a concentration-inhibition curve.
